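Protocol summary: plate cells (96-well), add compound at 5 concentrations, incubate 48 h, interpolate endpoints linearly. At the GI50, growth is halved. The concentration for full growth arrest is given as TGI.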
Key:
Experiment in all cases: NCI-60 cell line screen, 48 h
786-0 renal = system: 786-0 renal
A498 renal = system: A498 renal
A549 NSCLC = system: A549 NSCLC
ACHN renal = system: ACHN renal
CAKI-1 renal = system: CAKI-1 renal
CCRF-CEM leukemia = system: CCRF-CEM leukemia
COLO 205 colon = system: COLO 205 colon
DLD-1 colon = system: DLD-1 colon
DMS 114 small cell lung = system: DMS 114 small cell lung
DMS 273 small cell lung = system: DMS 273 small cell lung
EKVX NSCLC = system: EKVX NSCLC
HCC-2998 colon = system: HCC-2998 colon
HCT-116 colon = system: HCT-116 colon
HCT-15 colon = system: HCT-15 colon
HL-60(TB) leukemia = system: HL-60(TB) leukemia
HOP-18 NSCLC = system: HOP-18 NSCLC
HOP-62 NSCLC = system: HOP-62 NSCLC
HOP-92 NSCLC = system: HOP-92 NSCLC
HT29 colon = system: HT29 colon
IGROV1 ovarian = system: IGROV1 ovarian
K-562 leukemia = system: K-562 leukemia
KM12 colon = system: KM12 colon
KM20L2 colon = system: KM20L2 colon
LOX IMVI melanoma = system: LOX IMVI melanoma
LXFL 529 NSCLC = system: LXFL 529 NSCLC
M14 melanoma = system: M14 melanoma
M19-MEL melanoma = system: M19-MEL melanoma
MALME-3M melanoma = system: MALME-3M melanoma
MOLT-4 leukemia = system: MOLT-4 leukemia
NCI-H226 lung = system: NCI-H226 lung
NCI-H23 lung = system: NCI-H23 lung
NCI-H460 lung = system: NCI-H460 lung
NCI-H522 lung = system: NCI-H522 lung
OVCAR-3 ovarian = system: OVCAR-3 ovarian
OVCAR-4 ovarian = system: OVCAR-4 ovarian
OVCAR-5 ovarian = system: OVCAR-5 ovarian
OVCAR-8 ovarian = system: OVCAR-8 ovarian
RPMI-8226 leukemia = system: RPMI-8226 leukemia
RXF 393 renal = system: RXF 393 renal
RXF-631 renal = system: RXF-631 renal
SF-268 CNS = system: SF-268 CNS
SF-295 CNS = system: SF-295 CNS
SF-539 CNS = system: SF-539 CNS
SK-MEL-2 melanoma = system: SK-MEL-2 melanoma
SK-MEL-28 melanoma = system: SK-MEL-28 melanoma
SK-MEL-5 melanoma = system: SK-MEL-5 melanoma
SK-OV-3 ovarian = system: SK-OV-3 ovarian
SN12C renal = system: SN12C renal
SNB-19 CNS = system: SNB-19 CNS
SNB-75 CNS = system: SNB-75 CNS
SNB-78 CNS = system: SNB-78 CNS
SR leukemia = system: SR leukemia
SW-620 colon = system: SW-620 colon
TK-10 renal = system: TK-10 renal
U251 CNS = system: U251 CNS
UACC-257 melanoma = system: UACC-257 melanoma
UACC-62 melanoma = system: UACC-62 melanoma
UO-31 renal = system: UO-31 renal
XF 498 CNS = system: XF 498 CNS

SMILES: O=C([O-])c1ccc2c(c1)-c1nc-2nc2[n-]c(nc3nc(nc4[n-]c(n1)c1ccc(C(=O)[O-])cc41)-c1cc(C(=O)[O-])ccc1-3)c1ccc(C(=O)[O-])cc21.[Fe+2]
- GI50 (786-0 renal): > 30.7 µM
- TGI (786-0 renal): > 50 µM
- GI50 (A498 renal): > 50 µM
- TGI (A498 renal): > 50 µM
- GI50 (A549 NSCLC): > 50 µM
- TGI (A549 NSCLC): > 50 µM
- GI50 (ACHN renal): > 50 µM
- TGI (ACHN renal): > 50 µM
- GI50 (CAKI-1 renal): > 50 µM
- TGI (CAKI-1 renal): > 50 µM
- GI50 (CCRF-CEM leukemia): > 22.2 µM
- TGI (CCRF-CEM leukemia): > 31.3 µM
- GI50 (COLO 205 colon): > 22.2 µM
- TGI (COLO 205 colon): > 31.2 µM
- GI50 (DLD-1 colon): > 32.1 µM
- TGI (DLD-1 colon): > 50 µM
- GI50 (DMS 114 small cell lung): > 23.2 µM
- TGI (DMS 114 small cell lung): > 32.6 µM
- GI50 (DMS 273 small cell lung): > 43.9 µM
- TGI (DMS 273 small cell lung): > 50 µM
- GI50 (EKVX NSCLC): > 50 µM
- TGI (EKVX NSCLC): > 50 µM
- GI50 (HCC-2998 colon): > 50 µM
- TGI (HCC-2998 colon): > 50 µM
- GI50 (HCT-116 colon): 13.6 µM
- TGI (HCT-116 colon): 34.4 µM
- GI50 (HCT-15 colon): > 22.3 µM
- TGI (HCT-15 colon): > 32.1 µM
- GI50 (HL-60(TB) leukemia): > 22.9 µM
- TGI (HL-60(TB) leukemia): > 30.5 µM
- GI50 (HOP-18 NSCLC): > 50 µM
- TGI (HOP-18 NSCLC): > 50 µM
- GI50 (HOP-62 NSCLC): > 50 µM
- TGI (HOP-62 NSCLC): > 50 µM
- GI50 (HOP-92 NSCLC): > 50 µM
- TGI (HOP-92 NSCLC): > 50 µM
- GI50 (HT29 colon): > 50 µM
- TGI (HT29 colon): > 50 µM
- GI50 (IGROV1 ovarian): > 50 µM
- TGI (IGROV1 ovarian): > 50 µM
- GI50 (K-562 leukemia): > 23 µM
- TGI (K-562 leukemia): > 33.7 µM
- GI50 (KM12 colon): > 50 µM
- TGI (KM12 colon): > 50 µM
- GI50 (KM20L2 colon): > 50 µM
- TGI (KM20L2 colon): > 50 µM
- GI50 (LOX IMVI melanoma): 20.7 µM
- TGI (LOX IMVI melanoma): > 42.9 µM
- GI50 (LXFL 529 NSCLC): > 41.6 µM
- TGI (LXFL 529 NSCLC): > 50 µM
- GI50 (M14 melanoma): > 50 µM
- TGI (M14 melanoma): > 50 µM
- GI50 (M19-MEL melanoma): > 31.8 µM
- TGI (M19-MEL melanoma): > 50 µM
- GI50 (MALME-3M melanoma): > 50 µM
- TGI (MALME-3M melanoma): > 50 µM
- GI50 (MOLT-4 leukemia): > 50 µM
- TGI (MOLT-4 leukemia): > 50 µM
- GI50 (NCI-H226 lung): > 50 µM
- TGI (NCI-H226 lung): > 50 µM
- GI50 (NCI-H23 lung): > 50 µM
- TGI (NCI-H23 lung): > 50 µM
- GI50 (NCI-H460 lung): > 50 µM
- TGI (NCI-H460 lung): > 50 µM
- GI50 (NCI-H522 lung): > 50 µM
- TGI (NCI-H522 lung): > 50 µM
- GI50 (OVCAR-3 ovarian): > 50 µM
- TGI (OVCAR-3 ovarian): > 50 µM
- GI50 (OVCAR-4 ovarian): 49.2 µM
- TGI (OVCAR-4 ovarian): > 50 µM
- GI50 (OVCAR-5 ovarian): > 50 µM
- TGI (OVCAR-5 ovarian): > 50 µM
- GI50 (OVCAR-8 ovarian): > 50 µM
- TGI (OVCAR-8 ovarian): > 50 µM
- GI50 (RPMI-8226 leukemia): > 27.3 µM
- TGI (RPMI-8226 leukemia): > 36.4 µM
- GI50 (RXF 393 renal): > 50 µM
- TGI (RXF 393 renal): > 50 µM
- GI50 (RXF-631 renal): > 50 µM
- TGI (RXF-631 renal): > 50 µM
- GI50 (SF-268 CNS): > 50 µM
- TGI (SF-268 CNS): > 50 µM
- GI50 (SF-295 CNS): > 50 µM
- TGI (SF-295 CNS): > 50 µM
- GI50 (SF-539 CNS): > 29.5 µM
- TGI (SF-539 CNS): > 50 µM
- GI50 (SK-MEL-2 melanoma): > 50 µM
- TGI (SK-MEL-2 melanoma): > 50 µM
- GI50 (SK-MEL-28 melanoma): > 50 µM
- TGI (SK-MEL-28 melanoma): > 50 µM
- GI50 (SK-MEL-5 melanoma): > 50 µM
- TGI (SK-MEL-5 melanoma): > 50 µM
- GI50 (SK-OV-3 ovarian): > 50 µM
- TGI (SK-OV-3 ovarian): > 50 µM
- GI50 (SN12C renal): > 50 µM
- TGI (SN12C renal): > 50 µM
- GI50 (SNB-19 CNS): > 50 µM
- TGI (SNB-19 CNS): > 50 µM
- GI50 (SNB-75 CNS): 31.8 µM
- TGI (SNB-75 CNS): > 50 µM
- GI50 (SNB-78 CNS): > 50 µM
- TGI (SNB-78 CNS): > 50 µM
- GI50 (SR leukemia): 19 µM
- TGI (SR leukemia): > 50 µM
- GI50 (SW-620 colon): > 21.7 µM
- TGI (SW-620 colon): > 31.5 µM
- GI50 (TK-10 renal): > 50 µM
- TGI (TK-10 renal): > 50 µM
- GI50 (U251 CNS): > 38.4 µM
- TGI (U251 CNS): > 50 µM
- GI50 (UACC-257 melanoma): > 50 µM
- TGI (UACC-257 melanoma): > 50 µM
- GI50 (UACC-62 melanoma): > 50 µM
- TGI (UACC-62 melanoma): > 50 µM
- GI50 (UO-31 renal): > 50 µM
- TGI (UO-31 renal): > 50 µM
- GI50 (XF 498 CNS): > 50 µM
- TGI (XF 498 CNS): > 50 µM

— PubChem BioAssay (NCI)
